# Laboratory results published in PMC12535076, “Neurotherapeutic effects of Vutiglabridin as a Paraoxonase-2 modulator in preclinical models of Parkinson’s disease” (Molecular Neurodegeneration, 2025).
# Legend:
# [1] = target: T1, MAO-B (Homo sapiens, UniProt P27338); assay: ROS Glo based MAO-B enzyme activity assay; type: biochemical; details: read-out: IC50, MAO-B assay, ROS-Glo method
# T1 sequence (P27338 1-520): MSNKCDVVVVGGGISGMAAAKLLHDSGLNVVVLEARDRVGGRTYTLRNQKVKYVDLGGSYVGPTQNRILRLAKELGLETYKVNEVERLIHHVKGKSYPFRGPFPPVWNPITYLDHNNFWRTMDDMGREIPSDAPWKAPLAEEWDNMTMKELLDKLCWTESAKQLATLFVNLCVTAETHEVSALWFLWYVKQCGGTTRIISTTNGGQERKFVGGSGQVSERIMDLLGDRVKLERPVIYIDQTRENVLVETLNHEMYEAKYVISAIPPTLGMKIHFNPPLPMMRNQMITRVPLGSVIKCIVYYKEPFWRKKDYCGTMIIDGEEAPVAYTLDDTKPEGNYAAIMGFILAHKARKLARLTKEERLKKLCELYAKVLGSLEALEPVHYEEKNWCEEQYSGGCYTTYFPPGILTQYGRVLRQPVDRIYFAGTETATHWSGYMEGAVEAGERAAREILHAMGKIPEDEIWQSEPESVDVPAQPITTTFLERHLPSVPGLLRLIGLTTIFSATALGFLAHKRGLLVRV
# Description: An enzyme solution was prepared by diluting 10 µL of a 2.5 mg/mL MAO-A or MAO-B stock in 10 mL of 50 mM sodium phosphate buffer (pH 7.4). A substrate solution was prepared by diluting 200 µL of a 100 mM benzylamine (or tyramine) stock in 10 mL phosphate buffer to achieve a final concentration of 1 mM. For each 96-well plate experiment, 12.5 µL of a 1× H2O2 probe solution was added to 1 mL of the probe dilution buffer from the ROS Glo™ kit. Separately, 40 µL of cysteine and enhancer were diluted into 4 mL of Luciferin solution. In each well, 49 µL of the enzyme solution was dispensed, followed by 1 µL of the test compound, and incubated for 30 min. […] Next, 10 µL of the H2O2 probe solution was added and incubated for 15 min. […] Luminescence was subsequently recorded using a microplate luminescence reader (SpectraMax i3, Molecular Devices).
# [2] = Octanol-water partition coefficient measurement; type: physicochemical; details: octanol / pH 7.4 phosphate buffer, octanol / pH7.4 phosphate buffer, room temperature 24 h, aqueous phase below LOQ, LOQ value used, read-out: octanol-water partition coefficient (log D)
# Description: 1000 µg/mL of Vuti was mixed with octanol, and an aliquot of 2 mL was mixed with the same amount of aliquot of 2 mL of pH7.4 phosphate buffer. The mixed solution was shaken at room temperature for 24 h, and the aqueous and octanol phase was separately analyzed for Vuti concentration via HLPC. The limit of quantification (LOQ) was 0.2012 µg/ml. Three replicates were performed. Because no concentration was detected in the aqueous phase, LOQ value was used; the actual concentration in the aqueous phase is expected to be lower than LOQ. The octanol-water partition coefficient Log D was calculated as log of concentration in octanol phase divided by concentration in aqueous phase.
# (a) Measurement of Vuti concentration in octanol and aqueous phase (pH7.4 phosphate buffer) via HPLC. The mean value of three replicates was used, and the limit of quantification (LOQ) value was used to calculate Log D as a log of concentration in the octanol phase divided by the concentration in the aqueous phase. (b) Efflux ratios (Papp(B→A)/Papp(A→B)) of Vuti in three types of cell monolayers, with or without P-glycoprotein (P-gp) inhibitor GF120918. (c) Schematic of 14C-labeling of Vuti. Attachment to the ethoxy group is warranted because it is robustly maintained throughout metabolism. (d) Plasma radioactivity concentration in Sprague-Dawley rats after a single administration of 10 mg/kg of 14C-Vuti (n = 3).
# [3] = target: T2, PON2 in mouse brain tissue (Mus musculus, UniProt Q62086); assay: Cellular thermal shift assay (CESTA) of PON2 in brain tissue; type: binding
# T2 construct: Brain tissue pieces were pulverized under frozen conditions in a mortar with liquid nitrogen; from tissue; host or cells: brain tissue of mice dosed orally with vehicle or Vuti for 5 days
# Description: Interaction of PON2 and Vuti in mouse brain tissue was evaluated by Cellular Thermal Shift Assay (CESTA®) in vivo [65] (Pelago Bioscience AB, Solna, Sweden). Briefly, mice were orally administered vehicle or Vuti at 50 mg/kg (Vuti 50) or 100 mg/kg (Vuti 100) for 5 days. Brain tissue pieces were pulverized under frozen conditions in a mortar with liquid nitrogen. Equal amounts of tissue powder were placed into 8 or 12 separate PCR strip tubes for each set of the treated tissues and kept frozen until heat challenged. Pre-heated 60 µl HBSS buffer was added to the tubes and samples were immediately subjected to an 8 or 12-step heat challenge for 3 min between 37 °C and 59 °C. Samples were then snap-frozen in liquid nitrogen and lysed by freeze-thawing. After the first round of freeze thawing 1% Brij 35 was added to the samples and the samples were incubated with shaking for 20 min at 4 °C before the two last rounds of freeze thawing. After centrifugation at 20 000 x g for 20 min, 35 µl of the supernatant was mixed with 17,5 µl gel loading buffer (NuPAGE LDS sample buffer, Thermo Fisher Scientific, Waltham, MA, USA). Total protein lysate (6 µg) was separated on 12% SDS-PAGE gels. […] Western Blot detected PON2 protein (abcam, ab183718) normalized to SOD-1, a temperature stable protein band observed in the full protein gel detection with house-keeping gene.
# T2 sequence (Q62086 whole entry): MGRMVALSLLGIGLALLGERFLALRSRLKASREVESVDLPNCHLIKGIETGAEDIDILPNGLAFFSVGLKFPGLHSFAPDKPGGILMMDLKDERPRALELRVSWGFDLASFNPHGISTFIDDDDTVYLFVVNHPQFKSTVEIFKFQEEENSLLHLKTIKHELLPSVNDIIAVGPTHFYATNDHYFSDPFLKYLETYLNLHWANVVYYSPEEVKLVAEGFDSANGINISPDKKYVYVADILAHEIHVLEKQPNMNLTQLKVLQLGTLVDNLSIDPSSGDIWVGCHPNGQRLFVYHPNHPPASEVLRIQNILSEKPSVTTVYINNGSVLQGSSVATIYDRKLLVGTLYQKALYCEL
smiles,measurement,setting,value
"CCOc1ccc(C2COc3c(ccc4c3CCC(C)(C)O4)C2)c(O)c1 (stereo not shown) [Vuti, Vutiglabridin]",IC50,[1],58.3 µM
same,logD at 24 h,[2],> 3.69
same,increase of the Tm of PON2 over vehicle group,[3]; Vuti 50 mg/kg for 5 days (Vuti 50),approximately 1.3 °C
same,increase of the Tm of PON2 over vehicle group,[3]; Vuti 100 mg/kg for 5 days (Vuti 100),~1.4 °C
